The nature of data set [1]: Inhibition of Mycobacterium tuberculosis Fructose 1,6-bisphosphate aldolase class 2 expressed in Escherichia coli BL21(DE3) assessed as cleavage of fructose 1,6-bisphosphate by fluorescence assay.
Data set [2] is described as follows: Acute toxicity in po dosed KM mouse measured for 14 days. It counts as organism-based. The settings on record: in vivo.
The target of data set [3] is Amyloid-beta precursor protein (Homo sapiens, UniProt P05067). As to the kind of experiment: Inhibition of self-induced amyloid beta (1 to 42) (unknown origin) aggregation after 48 hrs by ThT assay.
Data set [4] can be described thus: Selectivity index, ratio of CC50 for mouse J774A.1 cells to IC50 for amastigote form of Leishmania donovani MHOM//IN/80/Dd8 infected in mouse J774A.1 cells. In kind it is functional.
The next data set deals with Leishmania donovani. As to the kind of experiment: Antileishmanial activity against amastigote form of Leishmania donovani MHOM//IN/80/Dd8 infected in mouse J774A.1 cells after 72 hrs by luciferase reporter gene assay. The settings on record: MHOM//IN/80/Dd8, J774.A1, 72 h. It counts as functional, organism-based.

Structures are written as SMILES.

For orientation: IC50 means the point on the concentration scale where inhibition reaches its midpoint. A word on the LD50: it is the dose expected to kill half of the subjects tested. Low values mean a more toxic substance, high ones a less toxic substance.

Chain of Amyloid-beta precursor protein (P05067 whole entry): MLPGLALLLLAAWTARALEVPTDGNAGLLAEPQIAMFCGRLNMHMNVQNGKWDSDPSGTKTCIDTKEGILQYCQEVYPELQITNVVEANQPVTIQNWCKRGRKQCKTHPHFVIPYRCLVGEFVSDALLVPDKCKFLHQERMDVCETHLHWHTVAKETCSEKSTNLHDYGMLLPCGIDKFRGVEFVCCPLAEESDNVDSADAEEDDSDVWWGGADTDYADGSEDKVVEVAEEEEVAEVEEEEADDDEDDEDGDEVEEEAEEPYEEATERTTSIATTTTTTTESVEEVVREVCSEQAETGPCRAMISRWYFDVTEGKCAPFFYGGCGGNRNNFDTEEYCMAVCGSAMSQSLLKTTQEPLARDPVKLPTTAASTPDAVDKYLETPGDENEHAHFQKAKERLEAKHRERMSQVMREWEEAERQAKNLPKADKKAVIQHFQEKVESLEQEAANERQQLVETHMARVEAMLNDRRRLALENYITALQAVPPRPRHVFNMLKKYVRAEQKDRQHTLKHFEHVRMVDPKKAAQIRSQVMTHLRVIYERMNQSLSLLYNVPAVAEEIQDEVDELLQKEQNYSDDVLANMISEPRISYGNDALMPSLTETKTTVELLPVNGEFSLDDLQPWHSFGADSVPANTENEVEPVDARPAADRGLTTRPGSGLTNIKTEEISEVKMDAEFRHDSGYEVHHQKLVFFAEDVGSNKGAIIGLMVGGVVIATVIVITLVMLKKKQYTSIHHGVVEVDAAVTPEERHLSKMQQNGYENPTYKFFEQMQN

In the case of `O=C(O)c1ccc2cccc(O)c2n1`, the half-inhibitory concentration (IC50) in data set [1] amounted to 10 µM. For the molecule `Oc1ccc(/C=C/c2ccc(O)c3ncccc23)cc1`, the LD50 at 336 h in data set [2] was greater than 2000 mg/kg. Also, the concentration for half-maximal inhibition (IC50) in data set [3] is 8.5 µM.

Turning to `COc1ccc(OC)c(/C=C/NC(=O)c2cc(O)c3cccc(OC)c3n2)c1`, the “Ratio CC50/IC50” value in data set [4] came out at 25.27. This molecule showed an IC50 in the data set with Leishmania donovani of 3.75 µM. As to `CCCCCCCCCCCCCCCCOP(=O)([O-])OCC[N+](C)(C)C` [MILTEFOSINE], the “Ratio CC50/IC50” value in data set [4] is 4.1. The IC50 in the data set on Leishmania donovani was found to be 12.4 µM.

These data come from ChEMBL document CHEMBL3621127, “8-Hydroxyquinoline: a privileged structure with a broad-ranging pharmacological potential” (Medchemcomm, 2015).
